Data: patent US9777008B2, “PRMT5 inhibitors and uses thereof” (Epizyme, Inc., priority 2012, dated 2017)

These compounds were tested against PRMT5/MEP50 (Homo sapiens (Human), UniProt O14744) (assay: PRMT5 Biochemical Assay (PRMT5/MEP50 enzyme assay on peptide substrate, 3H-SAM Flashplate)).
Sequence of PRMT5/MEP50 (O14744 other isoform, or with tags, fused parts or gaps): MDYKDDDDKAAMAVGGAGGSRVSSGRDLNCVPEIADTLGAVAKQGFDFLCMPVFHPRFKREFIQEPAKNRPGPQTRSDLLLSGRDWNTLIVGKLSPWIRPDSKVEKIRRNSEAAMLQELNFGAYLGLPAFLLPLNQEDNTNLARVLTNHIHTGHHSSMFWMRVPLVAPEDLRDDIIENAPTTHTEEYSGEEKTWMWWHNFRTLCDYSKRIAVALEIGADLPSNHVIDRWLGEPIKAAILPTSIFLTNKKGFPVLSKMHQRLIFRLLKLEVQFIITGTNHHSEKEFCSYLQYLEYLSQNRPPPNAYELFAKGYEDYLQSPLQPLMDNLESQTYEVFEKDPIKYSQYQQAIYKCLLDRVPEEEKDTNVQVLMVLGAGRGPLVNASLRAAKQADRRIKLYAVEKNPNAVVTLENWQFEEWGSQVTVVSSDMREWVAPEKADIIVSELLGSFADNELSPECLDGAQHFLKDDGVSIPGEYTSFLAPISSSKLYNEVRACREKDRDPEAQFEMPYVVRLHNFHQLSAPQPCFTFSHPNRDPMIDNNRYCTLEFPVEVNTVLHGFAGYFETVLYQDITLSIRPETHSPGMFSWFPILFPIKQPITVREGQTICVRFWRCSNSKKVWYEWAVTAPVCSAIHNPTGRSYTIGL
Sequence of PRMT5/MEP50 (Q9BQA1 other isoform, or with tags, fused parts or gaps partner): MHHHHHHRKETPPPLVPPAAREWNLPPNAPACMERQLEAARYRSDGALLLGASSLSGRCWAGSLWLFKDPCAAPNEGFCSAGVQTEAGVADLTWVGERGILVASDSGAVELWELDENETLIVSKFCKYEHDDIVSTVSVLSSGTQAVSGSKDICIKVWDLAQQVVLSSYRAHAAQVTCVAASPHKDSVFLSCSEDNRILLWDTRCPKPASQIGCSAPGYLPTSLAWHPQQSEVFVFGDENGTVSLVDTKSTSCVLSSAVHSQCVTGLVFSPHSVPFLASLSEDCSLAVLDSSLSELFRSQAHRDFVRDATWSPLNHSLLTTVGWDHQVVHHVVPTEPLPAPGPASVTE
Description: S-adenosylmethionine (SAM), S-adenosylhomocysteine (SAH), bicine, KCl, Tween20, dimethylsulfoxide (DMSO), bovine skin gelatin (BSG), and Tris(2-carboxyethyl)phosphine hydrochloride solution (TCEP) were purchased from Sigma-Aldrich at the highest level of purity possible. ^3H-SAM was purchase from American Radiolabeled Chemicals with a specific activity of 80 Ci/mmol. 384-well streptavidin Flashplates were purchased from PerkinElmer.
Peptide representative of human histone H4 residues 1-15 was synthesized with a C-terminal linker-affinity tag motif and a C-terminal amide cap by 21st Century Biochemicals. The peptide was high high-performance liquid chromatography (HPLC) purified to greater than 95% purity and confirmed by liquid chromatography mass spectrometry (LC-MS). The sequence was Ac-[…][K-Biot]-amide (SEQ ID NO.:3).
Molecular Biology: Full-length human PRMT5 (NM_006109.3) transcript variant 1 clone was amplified from a fetal brain cDNA library, incorporating flanking 5′ sequence encoding a FLAG tag ([…]) (SEQ ID NO.:4) fused directly to Ala 2 of PRMT5. Full-length human MEP50 (NM_024102) clone was amplified from a human testis cDNA library incorporating a 5′ sequence encoding a 6-histidine tag (MHHHHHH) (SEQ ID NO.:5) fused directly to Arg 2 of MEP50. The amplified genes were sublconed into pENTR/D/TEV (Life Technologies) and subsequently transferred by Gateway™ attL×attR recombination to pDEST8 baculvirus expression vector (Life Technologies).
Recombinant baculovirus and Baculovirus-Infected Insect Cells (BIIC) were generated according to Bac-to-Bac kit instructions (Life Technologies) and Wasilko, 2006, respectively. Protein over-expression was accomplished by infecting exponentially growing Spodoptera frugiperda (SF9) cell culture at 1.2×10^6 cell/ml with a 5000 fold dilution of BIIC stock. Infections were carried out at 27° C. for 72 hours, harvested by centrifugation, and stored at −80° C. for purification.
Flag-PRMT5/6His-MeP50 was eluted with 300 mM Imidazole in the same buffer. The purity of recovered protein was 87%. Reference: Wasilko, D. J. and S. E. Lee: “TIPS: titerless infected-cells preservation and scale-up” Bioprocess J., 5 (2006), pp. 29-32.
General Procedure for PRMT5/MEP50 Enzyme Assays on Peptide Substrates.
The assays were all performed in a buffer consisting of 20 mM Bicine (pH=7.6), 1 mM TCEP, 0.005% BSG, and 0.002% Tween20, prepared on the day of use. Compounds in 100% DMSO (1 ul) were spotted into a polypropylene 384-well V-bottom plates (Greiner) using a Platemate Plus outfitted with a 384-channel head (Thermo Scientific). DMSO (1 ul) was added to Columns 11, 12, 23, 24, rows A-H for the maximum signal control and 1 ul of SAH, a known product and inhibitor of PRMT5/MEP50, was added to columns 11, 12, 23, 24, rows I-P for the minimum signal control. A cocktail (40 ul) containing the PRMT5/MEP50 enzyme and the peptide was added by Multidrop Combi (Thermo-Fisher). The compounds were allowed to incubate with PRMT5/MEP50 for 30 min at 25 degrees Celsius, then a cocktail (10 ul) containing ^3H-SAM was added to initiate the reaction (final volume=51 ul). The final concentrations of the components were as follows: PRMT5/MEP50 was 4 nM, ^3H-SAM was 75 nM, peptide was 40 nM, SAH in the minimum signal control wells was 100 uM, and the DMSO concentration was 1%. The assays were stopped by the addition of non-radioactive SAM (10 ul) to a final concentration of 600 uM, which dilutes the ^3H-SAM to a level where its incorporation into the peptide substrate is no longer detectable. 50 ul of the reaction in the 384-well polypropylene plate was then transferred to a 384-well Flashplate and the biotinylated peptides were allowed to bind to the streptavidin surface for at least 1 hour before being washed three times with 0.1% Tween20 in a Biotek ELx405 plate washer. […]
Compound O[C@H](COc1cccc(CNC2CCCC2)c1)CN1CCc2ccccc2C1 [Compound 22] has an IC50 of 101 to 1000 nM. In the case of O[C@@H](COc1cccc(CNC2CCCC2)c1)CN1CCc2ccccc2C1 [Compound 23], the IC50 is reported as 1000 to 10000 nM. In the case of COc1cc2c(cc1OC)CN(CC(O)COc1cccc(CNC3CCCC3)c1)CC2 (centres unmarked) [Compound 30], the IC50 is reported as over 40000 nM. COc1ccc(Cn2nccc2-c2ccc(OC[C@H](O)CN3CCc4ccccc4C3)cc2)cc1 [Compound 37] gave an IC50 of 1000 to 10000 nM. COc1ccc(Cn2nccc2-c2ccc(OC[C@@H](O)CN3CCc4ccccc4C3)cc2)cc1 [Compound 38] gave an IC50 of over 40000 nM. With COc1ccc(Cn2ccc(-c3ccc(OC[C@H](O)CN4CCc5ccccc5C4)cc3)n2)cc1 [Compound 41] the IC50 was 1000 to 10000 nM. Work on COc1ccc(Cn2ccc(-c3ccc(OC[C@@H](O)CN4CCc5ccccc5C4)cc3)n2)cc1 [Compound 42] yielded an IC50 of 10000 to 40000 nM. Work on Cn1cnc2ccc(-c3cccc(OCC(O)CN4CCc5ccccc5C4)c3)cc21 (centres unmarked) [Compound 45, 1-(3,4-dihydroisoquinolin-2(1H)-yl)-3-(3-(1-methyl-1H-benzo[d]imidazol-6-yl)phenoxy)propan-2-ol] yielded an IC50 of under 100 nM. With OC(COc1ccc(C2CCCNC2)cc1)CN1CCc2ccccc2C1 (centres unmarked) [Compound 47] the IC50 was under 100 nM. For CC1Cc2ccccc2CN1CC(O)COc1cccc(CNC2CCCC2)c1 (centres unmarked) [Compound 51], the IC50 was over 40000 nM. For COc1cccc2c1CCN(CC(O)COc1cccc(CNC3CCCC3)c1)C2 (centres unmarked) [Compound 54], the IC50 was over 40000 nM. With CC1CN(CC(O)COc2cccc(CNC3CCCC3)c2)Cc2ccccc21 (centres unmarked) [Compound 56] the IC50 was over 40000 nM. CN(C)S(=O)(=O)c1cccc(-c2cccc(OCC(O)CN3CCc4ccccc4C3)c2)c1 (centres unmarked) [Compound 61] gave an IC50 of over 40000 nM. With OC(COc1cccc(-c2cccc3cccnc23)c1)CN1CCc2ccccc2C1 (centres unmarked) [Compound 65, 1-(3,4-dihydroisoquinolin-2(1H)-yl)-3-(3-(quinolin-8-yl)phenoxy)propan-2-ol] the IC50 was under 100 nM. Work on Cn1cnc2ccc(-c3cccc(NCC(O)CN4CCc5ccccc5C4)c3)cc21 (centres unmarked) [Compound 102, 1-(3,4-dihydroisoquinolin-2(1H)-yl)-3-((3-(1-methyl-1H-benzo[d]imidazol-6-yl)phenyl)amino)propan-2-ol] yielded an IC50 of under 100 nM. OC(COc1cccc(-c2ccc3ncn(Cc4ccccc4)c3c2)c1)CN1CCc2ccccc2C1 (centres unmarked) [Compound 105, 1-(3-(1-benzyl-1H-benzo[d]imidazol-6-yl)phenoxy)-3-(3,4-dihydroisoquinolin-2(1H)-yl)propan-2-ol] gave an IC50 of under 100 nM. For Cn1ncc2ccc(-c3cccc(OCC(O)CN4CCc5ccccc5C4)c3)cc21 (centres unmarked) [Compound 106], the IC50 was under 100 nM. In the case of Cn1ncc2cc(-c3cccc(OCC(O)CN4CCc5ccccc5C4)c3)ccc21 (centres unmarked) [Compound 108], the IC50 is reported as under 100 nM. Compound CN(CC(O)CN1CCc2ccccc2C1)c1cccc(CNC2CCOCC2)c1 (centres unmarked) [Compound 116] has an IC50 of under 100 nM. Cn1cnc2ccc(-c3ccnc(NCC(O)CN4CCc5ccccc5C4)c3)cc21 (centres unmarked) [Compound 118, 1-(3,4-Dihydroisoquinolin-2(1H)-yl)-3-((4-(1-methyl-1H-benzo[d]imidazol-6-yl)pyridin-2-yl)amino)propan-2-ol] showed an IC50 of under 100 nM. For OC(COc1cccc(-c2ccc3ncsc3c2)c1)CN1CCc2ccccc2C1 (centres unmarked) [Compound 123, 1-(3-(benzo[d]thiazol-6-yl)phenoxy)-3-(3,4-dihydroisoquinolin-2(1H)-yl)propan-2-ol], the IC50 was 101 to 1000 nM. Cn1ccc2cnc(-c3cccc(OCC(O)CN4CCc5ccccc5C4)c3)nc21 (centres unmarked) [Compound 141, 1-(3,4-dihydroisoquinolin-2(1H)-yl)-3-(3-(7-methyl-7H-pyrrolo[2,3-d]pyrimidin-2-yl)phenoxy)propan-2-ol] showed an IC50 of under 100 nM. Cn1cnc2ccc(-c3cccc(OCC(O)CN4CCc5ccccc5C4Cc4ccccc4)c3)cc21 (centres unmarked) [Compound 143] showed an IC50 of over 40000 nM. COc1cc2c(cc1OC)CN(CC(O)COc1cccc(-c3ccc4ncn(C)c4c3)c1)CC2 (centres unmarked) [Compound 146] showed an IC50 of over 40000 nM. For Cn1cnc2ccc(-c3cccc(OC[C@@H](O)CN4CCc5ccccc5C4)c3)cc21 [Compound 173], the IC50 was 101 to 1000 nM. Compound Cn1cnc2ccc(-c3cccc(OC[C@H](O)CN4CCc5ccccc5C4)c3)cc21 [Compound 174] has an IC50 of under 100 nM. With Cn1ccc2ccc(-c3cccc(OCC(O)CN4CCc5ccccc5C4)c3)nc21 (centres unmarked) [Compound 176, 1-(3,4-dihydroisoquinolin-2(1H)-yl)-3-(3-(1-methyl-1H-pyrrolo[2,3-b]pyridin-6-yl)phenoxy)propan-2-ol] the IC50 was under 100 nM. Cn1cnc2ccc(-c3cccc(OCC(O)CN4CCc5ccccc5C4COc4ccccc4)c3)cc21 (centres unmarked) [Compound 178] showed an IC50 of over 40000 nM. Compound Cn1cnc2ccc(-c3cccc(OCC(O)CN4CCc5ccccc5C4)c3)nc21 (centres unmarked) [Compound 189, 1-(3,4-dihydroisoquinolin-2(1H)-yl)-3-(3-(3-methyl-3H-imidazo[4,5-b]pyridin-5-yl)phenoxy)propan-2-ol] has an IC50 of under 100 nM. In the case of CCOC(=O)C1c2ccccc2CCN1CC(O)COc1cccc(-c2ccc3ncn(C)c3c2)c1 (centres unmarked) [Compound 193], the IC50 is reported as over 40000 nM. With Cn1cnc2ccc(-c3cncc(NCC(O)CN4CCc5ccccc5C4)c3)cc21 (centres unmarked) [Compound 199] the IC50 was under 100 nM. Cn1cnc2ccc(-c3cccc(OCC(O)CN4CCc5ccccc5C4CC(N)=O)c3)cc21 (centres unmarked) [Compound 202] showed an IC50 of over 40000 nM. Work on OC(COc1cccc(-c2ccc3ncn(C4CCNC4)c3c2)c1)CN1CCc2ccccc2C1 (centres unmarked) [Compound 209, 1-(3,4-dihydroisoquinolin-2(1H)-yl)-3-(3-(1-(pyrrolidin-3-yl)-1H-benzo[d]imidazol-6-yl)phenoxy)propan-2-ol] yielded an IC50 of under 100 nM. With Cn1cc2ccc(-c3cccc(OCC(O)CN4CCc5ccccc5C4)c3)nc2n1 (centres unmarked) [Compound 210, 1-(3,4-dihydroisoquinolin-2(1H)-yl)-3-(3-(2-methyl-2H-pyrazolo[3,4-b]pyridin-6-yl)phenoxy)propan-2-ol] the IC50 was under 100 nM. Work on CN1CC(n2cnc3ccc(-c4cccc(OCC(O)CN5CCc6ccccc6C5)c4)cc32)C1 (centres unmarked) [Compound 218, 1-(3,4-dihydroisoquinolin-2(1H)-yl)-3-(3-(1-(1-methylazetidin-3-yl)-1H-benzo[d]imidazol-6-yl)phenoxy)propan-2-ol] yielded an IC50 of under 100 nM. CN1CCC(n2cnc3ccc(-c4cccc(OCC(O)CN5CCc6ccccc6C5)c4)cc32)C1 (centres unmarked) [Compound 219] was tested, and the IC50 was under 100 nM. Work on OC(COc1cccc(-c2ccc3ncn(C4CCNCC4)c3c2)c1)CN1CCc2ccccc2C1 (centres unmarked) [Compound 220] yielded an IC50 of under 100 nM. Work on CN1CCC(n2cnc3ccc(-c4cccc(OCC(O)CN5CCc6ccccc6C5)c4)cc32)CC1 (centres unmarked) [Compound 221] yielded an IC50 of under 100 nM. OC(COc1cccc(-c2cccc3[nH]cnc23)c1)CN1CCc2ccccc2C1 (centres unmarked) [Compound 223, 1-(3-(1H-benzo[d]imidazol-4-yl)phenoxy)-3-(3,4-dihydroisoquinolin-2(1H)-yl)propan-2-ol] was tested, and the IC50 was under 100 nM. Cn1cnc2ccc(-c3cccc(OCC(O)CN4CCc5ccccc5C4=O)c3)cc21 (centres unmarked) [Compound 225] showed an IC50 of over 40000 nM. In the case of Cn1ncc2ccc(-c3ccnc(NCC(O)CN4CCc5ccccc5C4)c3)cc21 (centres unmarked) [Compound 226], the IC50 is reported as under 100 nM. Cn1ccc2ccc(-c3ccnc(NCC(O)CN4CCc5ccccc5C4)c3)cc21 (centres unmarked) [Compound 227] was tested, and the IC50 was under 100 nM. OC(CNc1cc(-c2ccc3ncn(C4CNC4)c3c2)ccn1)CN1CCc2ccccc2C1 (centres unmarked) [Compound 229] showed an IC50 of under 100 nM. For CN1CC(n2cnc3ccc(-c4ccnc(NCC(O)CN5CCc6ccccc6C5)c4)cc32)C1 (centres unmarked) [Compound 230], the IC50 was under 100 nM.
